Laboratory results reported in ChEMBL document CHEMBL1201862, “PubChem BioAssay data set” (2004).
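Test compounds were applied to cells in 96-well plates for 48 hours at 5 doses. GI50 = concentration required for 50% inhibition of growth.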 Active and inactive are the calls of the source. Rule as the data show it: active = GI50 up to about 1.1 µM and inactive = higher.

Key:
Assay in all cases: inhibition of tumour cell growth, NCI panel, 48 h
MDA-N = system: MDA-N
SR = system: SR
HCT-116 = system: HCT-116
CCRF-CEM = system: CCRF-CEM
MCF7 = system: MCF7
OVCAR-8 = system: OVCAR-8
SN12C = system: SN12C
SK-MEL-5 = system: SK-MEL-5
KM12 = system: KM12
UACC-257 = system: UACC-257
RPMI-8226 = system: RPMI-8226
K562 = system: K562
OVCAR-5 = system: OVCAR-5
RXF 393 = system: RXF 393
NCI-H226 = system: NCI-H226
SNB-19 = system: SNB-19
IGROV-1 = system: IGROV-1
NCI/ADR-RES = system: NCI/ADR-RES
HOP-92 = system: HOP-92
Malme-3M = system: Malme-3M

Measured: GI50

O=C1Nc2ccccc2C1Cc1ccc([N+](=O)[O-])cc1 (stereo unspecified)
inactive: MDA-N 71.4 µM | SR 19.4 µM | HCT-116 > 100 µM | CCRF-CEM 20.1 µM | MCF7 > 100 µM | OVCAR-8 > 100 µM | SN12C > 100 µM | SK-MEL-5 57.5 µM | KM12 36.2 µM | UACC-257 > 100 µM | RPMI-8226 34.8 µM | K562 > 100 µM | OVCAR-5 > 100 µM | RXF 393 > 100 µM | NCI-H226 > 100 µM | SNB-19 > 100 µM | IGROV-1 21.6 µM | NCI/ADR-RES > 100 µM

CCOC(=O)CCC(NC(=O)Cc1ccc(Nc2nc3ccccc3nc2-c2ccccc2)cc1)C(=O)OCC (stereo unspecified)
inactive: MDA-N > 100 µM | SR > 100 µM | HCT-116 > 100 µM | CCRF-CEM > 100 µM | MCF7 > 100 µM | OVCAR-8 25.2 µM | SN12C > 100 µM | HOP-92 18.8 µM | SK-MEL-5 > 100 µM | KM12 > 100 µM | Malme-3M 33 µM | UACC-257 > 100 µM | K562 > 100 µM | OVCAR-5 93.8 µM | RXF 393 10.3 µM | NCI-H226 72.1 µM | SNB-19 24.2 µM | IGROV-1 51.8 µM | NCI/ADR-RES 50.5 µM

COC(=O)C(Cc1c[nH]c2ccccc12)NP(=O)(O)OCC1OC(n2cc(Br)c(=O)[nH]c2=O)CC1O (stereo unspecified)
inactive: MDA-N > 100 µM | SR > 100 µM | HCT-116 > 100 µM | CCRF-CEM > 100 µM | MCF7 > 100 µM | OVCAR-8 > 100 µM | SN12C > 100 µM | HOP-92 > 100 µM | SK-MEL-5 > 100 µM | KM12 > 100 µM | Malme-3M > 100 µM | UACC-257 > 100 µM | K562 > 100 µM | OVCAR-5 > 100 µM | RXF 393 > 100 µM | NCI-H226 > 100 µM | SNB-19 > 100 µM | IGROV-1 > 100 µM | NCI/ADR-RES > 100 µM

Cc1ccc(SC(=O)N2C(=S)N=C(NC3CCCCC3)C23CCCCC3)cc1
inactive: MDA-N > 100 µM | SR 57.7 µM | HCT-116 > 100 µM | CCRF-CEM 29 µM | MCF7 51.2 µM | SN12C > 100 µM | HOP-92 > 100 µM | SK-MEL-5 > 100 µM | KM12 69.7 µM | Malme-3M > 100 µM | UACC-257 82.8 µM | RPMI-8226 > 100 µM | K562 > 100 µM | OVCAR-5 > 100 µM | RXF 393 70 µM | SNB-19 > 100 µM | IGROV-1 36.1 µM | NCI/ADR-RES > 100 µM

Nc1cc(S(=O)(=O)O)cc2ccc(S(=O)(=O)O)cc12
inactive: MDA-N > 100 µM | SR > 100 µM | HCT-116 > 100 µM | CCRF-CEM > 100 µM | MCF7 > 100 µM | OVCAR-8 > 100 µM | SN12C > 100 µM | HOP-92 > 100 µM | SK-MEL-5 > 100 µM | KM12 > 100 µM | Malme-3M > 100 µM | UACC-257 > 100 µM | RPMI-8226 > 100 µM | K562 > 100 µM | OVCAR-5 > 100 µM | RXF 393 > 100 µM | SNB-19 > 100 µM | IGROV-1 > 100 µM | NCI/ADR-RES > 100 µM

O=C(Nc1nn(C(=O)c2cccnc2)c(=O)s1)c1ccc(Cl)cc1
inactive: MDA-N > 100 µM | SR > 100 µM | HCT-116 84.5 µM | CCRF-CEM 34 µM | MCF7 77.3 µM | OVCAR-8 > 100 µM | SN12C > 100 µM | HOP-92 61.5 µM | SK-MEL-5 31.4 µM | KM12 61.7 µM | Malme-3M 31.6 µM | UACC-257 > 100 µM | K562 47.5 µM | OVCAR-5 > 100 µM | RXF 393 15.6 µM | NCI-H226 22.5 µM | SNB-19 > 100 µM | NCI/ADR-RES > 100 µM
